Target: T1, Cholesteryl ester transfer protein (Homo sapiens, UniProt P11597)
T1 sequence (P11597 whole entry): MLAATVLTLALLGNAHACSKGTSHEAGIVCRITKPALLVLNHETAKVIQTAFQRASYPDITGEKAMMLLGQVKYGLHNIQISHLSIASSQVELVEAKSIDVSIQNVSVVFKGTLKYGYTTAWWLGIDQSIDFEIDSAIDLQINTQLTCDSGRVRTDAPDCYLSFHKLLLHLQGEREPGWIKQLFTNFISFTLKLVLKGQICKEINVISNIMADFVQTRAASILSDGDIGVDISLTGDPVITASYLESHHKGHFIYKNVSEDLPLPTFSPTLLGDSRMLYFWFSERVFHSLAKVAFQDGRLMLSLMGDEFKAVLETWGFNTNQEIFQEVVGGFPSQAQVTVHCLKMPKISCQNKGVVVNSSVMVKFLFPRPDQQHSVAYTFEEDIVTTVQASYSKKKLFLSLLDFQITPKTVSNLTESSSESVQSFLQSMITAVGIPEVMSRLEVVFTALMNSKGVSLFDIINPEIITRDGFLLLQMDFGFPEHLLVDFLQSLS
Assay: Inhibition of CETP in human plasma assessed as reduction in fluorescent intensity by fluorescence analysis

Row | SMILES | IC50
1 | CCOC(=O)N1c2ccc(C(F)(F)F)nc2[C@@H](N(Cc2cc(C(F)(F)F)cc(C(F)(F)F)c2)c2nnn(C)n2)C[C@H]1CC | 29 nM
2 | CC[C@@H]1C[C@H](N(Cc2cc(C(F)(F)F)cc(C(F)(F)F)c2)c2nnn(C)n2)c2nc(N3CCOCC3)ccc2N1C(=O)OC(C)C | 25000 nM
3 | CC[C@@H]1C[C@H](N(Cc2cc(Cl)cc(C(F)(F)F)c2)c2nnn(C)n2)c2nc(C(F)(F)F)ccc2N1C(=O)OC(C)C | 20 nM
4 | CC[C@@H]1C[C@H](N(Cc2cc(C#N)cc(C(F)(F)F)c2)c2nnn(C)n2)c2nc(C)ccc2N1C(=O)OC(C)C | 21 nM
5 | CC[C@@H]1C[C@H](N(Cc2cc(C(F)(F)F)cc(C(F)(F)F)c2)C(C)=O)c2nc(N(C)C)ccc2N1C(=O)OC(C)C (racemic) | 948 nM
6 | CC[C@@H]1C[C@H](N(Cc2cc(C(F)(F)F)cc(C(F)(F)F)c2)c2nnn(C)n2)c2nc(C(F)(F)F)ccc2N1C(=O)OC1CCN(C)CC1 | 72 nM
7 | Cc1cc(C)c2c(c1)[C@@H](N(Cc1cc(C(F)(F)F)cc(C(F)(F)F)c1)c1nnn(C)n1)CCCN2C[C@H]1CC[C@H](C(=O)O)CC1 [EVACETRAPIB] | 26 nM
8 | CC[C@@H]1C[C@H](N(Cc2cc(C(F)(F)F)cc(C(F)(F)F)c2)C(C)=O)c2nc(Br)ccc2N1C(=O)OC(C)C (racemic) | 1300 nM
9 | CC[C@@H]1C[C@H](N(Cc2cc(C(F)(F)F)cc(C(F)(F)F)c2)c2nnn(C)n2)c2nc(C(F)(F)F)ccc2N1C(=O)OCC(C)(C)C(=O)O | 139 nM
10 | CC[C@@H]1C[C@H](N(Cc2cc(C(F)(F)F)cc(C(F)(F)F)c2)c2nnn(C)n2)c2nc(C(F)(F)F)ccc2N1C(=O)C(C)C | 55 nM
11 | CC[C@@H]1C[C@H](N(Cc2cc(C(F)(F)F)cc(C(F)(F)F)c2)c2nnn(C)n2)c2nc(N(C)C)ccc2N1C(=O)OC(C)C | 31 nM
12 | CCC1CC(N(Cc2cc(C(F)(F)F)cc(C(F)(F)F)c2)C(C)=O)c2sccc2N1C(=O)OC(C)C (stereo not given) | 46000 nM
13 | CC[C@@H]1C[C@H](N(Cc2cc(C(F)(F)F)cc(C(F)(F)F)c2)c2nnn(C)n2)c2nc(C(F)(F)F)ccc2N1C(=O)OCCc1nn[nH]n1 | 488 nM
14 | CC[C@@H]1C[C@H](N(C#N)Cc2cc(C(F)(F)F)cc(C(F)(F)F)c2)c2nc(C(F)(F)F)ccc2N1C(=O)OC(C)C (racemic) | > 5000 nM
15 | CC[C@@H]1C[C@H](N(Cc2cc(C(F)(F)F)cc(C(F)(F)F)c2)c2nnn(C)n2)c2nc(C(F)(F)F)ccc2N1CCC(C)C | 825 nM
16 | CC[C@@H]1C[C@H](N(Cc2cc(C(F)(F)F)cc(C(F)(F)F)c2)c2nnn(C)n2)c2nc(N)c(C)cc2N1C(=O)OC(C)C (racemic) | 106 nM
17 | CC(=O)N(Cc1cc(C(F)(F)F)cc(C(F)(F)F)c1)[C@H]1C[C@@H](C)N(C(=O)OC(C)C)c2ccc(C(F)(F)F)nc21 (racemic) | 1050 nM
18 | CC[C@@H]1C[C@H](N(Cc2cc(Cl)cc(C(F)(F)F)c2)c2nnn(C)n2)c2nc(C)ccc2N1C(=O)OC(C)C | 12 nM
19 | CC[C@@H]1C[C@H](N(Cc2cc(C(F)(F)F)cc(C(F)(F)F)c2)c2nnn(C)n2)c2nc(N3CCCC3)ccc2N1C(=O)OC(C)C | 471 nM
20 | CCNc1ccc2c(n1)[C@@H](N(Cc1cc(C(F)(F)F)cc(C(F)(F)F)c1)c1nnn(C)n1)C[C@@H](CC)N2C(=O)OC(C)C | 591 nM
21 | CC[C@@H]1C[C@H](N(Cc2cc(C(F)(F)F)cc(C(F)(F)F)c2)C(C)=O)c2nc(C(F)(F)F)ccc2N1C(=O)OC(C)C (racemic) | 396 nM
22 | CC[C@@H]1C[C@H](N(Cc2cc(C(F)(F)F)cc(C(F)(F)F)c2)c2nnn(C)n2)c2nc(C(F)(F)F)ccc2N1C(=O)OCCN(C)C | 572 nM
23 | CC[C@@H]1C[C@H](N(Cc2cc(C(F)(F)F)cc(C(F)(F)F)c2)c2nnn(C)n2)c2nc(C(F)(F)F)ccc2N1C(=O)OC | 197 nM

Row | SMILES | IC50
24 | CCC1CC(N(Cc2cc(C(F)(F)F)cc(C(F)(F)F)c2)C(C)=O)c2ccc(C)nc2N1C(=O)OC(C)C (stereo not given) | 44100 nM
25 | CC[C@@H]1C[C@H](N(Cc2cc(C(F)(F)F)cc(C(F)(F)F)c2)c2noc(C)n2)c2nc(C(F)(F)F)ccc2N1C(=O)OC(C)C (racemic) | 74 nM
26 | CC[C@@H]1C[C@H](N(Cc2cc(C(F)(F)F)cc(C(F)(F)F)c2)c2nnn(C)n2)c2nc(OC)c(C)cc2N1C(=O)OC(C)C (racemic) | 38.4 nM
27 | CC[C@@H]1C[C@H](N(Cc2cc(C(F)(F)F)cc(C(F)(F)F)c2)c2nnn(C)n2)c2nc(C(F)(F)F)ccc2N1C(=O)OCCN1CCOCC1 | 2110 nM
28 | CC[C@@H]1C[C@H](N(Cc2cc(Cl)cc(Cc3cncc(C(F)(F)F)c3)c2)c2nnn(C)n2)c2nc(C(F)(F)F)ccc2N1C(=O)OC(C)C | 207 nM
29 | CC[C@@H]1C[C@H](N(Cc2cc(C(F)(F)F)cc(C(F)(F)F)c2)c2nnn(C)n2)c2nc(Br)ccc2N1C(=O)OC(C)C (racemic) | 47 nM
30 | CC[C@@H]1C[C@H](N(Cc2cc(C(F)(F)F)cc(C(F)(F)F)c2)c2nnn(C)n2)c2nc(OC)ccc2N1C(=O)OC(C)C (racemic) | 134 nM
31 | CC[C@@H]1C[C@H](N(Cc2cc(C(F)(F)F)cc(C(F)(F)F)c2)c2nnn(C)n2)c2nc(NC)ccc2N1C(=O)OC(C)C | 142 nM
32 | CC[C@@H]1C[C@H](N(Cc2cc(C(F)(F)F)cc(C(F)(F)F)c2)c2nnn(C)n2)c2nc(C(F)(F)F)ccc2N1C(=O)OCCN1CCN(C)CC1 | 5730 nM
33 | CC[C@@H]1C[C@H](N(Cc2cc(C(F)(F)F)cc(C(F)(F)F)c2)c2nnn(CCN)n2)c2nc(C(F)(F)F)ccc2N1C(=O)OC(C)C (racemic) | 66 nM
34 | CC[C@@H]1C[C@H](N(Cc2cc(C(F)(F)F)cc(C(F)(F)F)c2)c2nnn(C)n2)c2nc(N3CCNCC3)ccc2N1C(=O)OC(C)C | > 50000 nM
35 | CC[C@@H]1C[C@H](N(Cc2cc(C(F)(F)F)cc(C(F)(F)F)c2)c2nnn(C)n2)c2nc(C(F)(F)F)ccc2N1C(=O)c1c(C)cnn1C | 193 nM
36 | CC[C@@H]1C[C@H](N(Cc2cc(F)cc(C(F)(F)F)c2)c2nnn(C)n2)c2nc(C)ccc2N1C(=O)OC(C)C | 30 nM
37 | CC[C@@H]1C[C@H](N(Cc2cc(C(F)(F)F)cc(C(F)(F)F)c2)c2nnn(C)n2)c2nc(C(F)(F)F)ccc2N1CC(C)C | 205 nM
38 | CC[C@@H]1C[C@H](N(Cc2cc(C(F)(F)F)cc(C(F)(F)F)c2)c2nnn(C)n2)c2nc(C)ccc2N1C(=O)OC(C)C (racemic) | 61 nM
39 | CC[C@@H]1C[C@H](N(Cc2cc(C(F)(F)F)cc(C(F)(F)F)c2)c2nnn(C)n2)c2nc(C(F)(F)F)ccc2N1C(=O)OCCO | 108 nM
40 | CC[C@@H]1C[C@H](N(Cc2cc(C(F)(F)F)cc(C(F)(F)F)c2)C(C)=O)c2nc(OC)ccc2N1C(=O)OC(C)C (racemic) | 487 nM
41 | CC[C@@H]1C[C@H](N(Cc2cc(C(F)(F)F)cc(C(F)(F)F)c2)c2nnn(C)n2)c2nc(C(F)(F)F)ccc2N1C(=O)OC(C)C (racemic) | 49 nM
42 | CCOC(=O)N1c2c(C)cc(C(F)(F)F)nc2[C@@H](N(Cc2cc(C(F)(F)F)cc(C(F)(F)F)c2)c2nnn(C)n2)C[C@H]1CC (racemic) | 24 nM
43 | CC[C@@H]1C[C@H](N(Cc2cc(C(F)(F)F)cc(C(F)(F)F)c2)c2nnn(CCO)n2)c2nc(C(F)(F)F)ccc2N1C(=O)OC(C)C (racemic) | 44 nM
44 | CC[C@@H]1C[C@H](N(Cc2cc(C(F)(F)F)cc(C(F)(F)F)c2)c2cc(C)no2)c2nc(C(F)(F)F)ccc2N1C(=O)OC(C)C (racemic) | 154 nM
45 | CC[C@H]1C[C@@H](N(Cc2cc(C(F)(F)F)cc(C(F)(F)F)c2)c2nnn(C)n2)c2nc(C)ccc2N1C(=O)OC(C)C | 50000 nM
